Data reported in patent publication US20120101257A1, “PROCESSES FOR PREPARING AMINO-SUBSTITUTED GAMMA-LACTAMS” (UNIVERSITE DE MONTREAL, priority 2009, published 2012).
*1 amine or outer side, *2 acyl side, *3 side chain or, on linkers, in order; H or OH if unused. Where a SMILES comes first, the peptide text is derived from it. [ ]: non-standard residue; d: D form. The star is where a group is joined. X12 = CC(C)C[C@@H](NC(=N)[C@@H](CCC(=O)O)N1C[C@H](N[*:1])CC1=O)C(=O)[*:2]; X9 = O=C1C[C@H](N[*:1])CN1[C@@H](Cc1c[nH]c2ccccc12)C(=O)[*:2]; X10 = O=C1C[C@H](N[*:1])CN1[C@H](Cc1ccccc1)C(=O)[*:2]; X5 = O=C1C[C@@H](N[*:1])CN1[C@H](Cc1ccccc1)C(=O)[*:2]; X7 = N[C@H]1CC(=O)N([C@H](Cc2c[nH]c3ccccc23)C(=O)*)C1; X3 = N[C@@H]1CCN([C@H](Cc2c[nH]c3ccccc23)C(=O)*)C1=O; X4 = N[C@H]1CCN([C@H](Cc2c[nH]c3ccccc23)C(=O)*)C1=O; X1 = NCCCC[C@@H](C(N)=O)N1C[C@@H](N*)CC1=O; X6 = NCCCC[C@@H](C(N)=O)N1CC[C@@H](N*)C1=O; X2 = NCCCC[C@@H](C(N)=O)N1CC[C@H](N*)C1=O; X8 = NCCCC[C@@H](C(N)=O)N1C[C@H](N*)CC1=O; d(aThr) = C[C@@H](O)[C@@H](N)C(=O)O

What was measured:
[1] = target: T1, CD36 (Rattus norvegicus, UniProt Q07969); assay: Competitive covalent CD36 binding assay using photoactivatable [125I]-Tyr-Bpa-Ala-Hexarelin; settings: for IC50: displacement of [125I]-Tyr-Bpa-Ala-Hexarelin; for drop of CD36 affinity, factor: factor of decrease, reference peptide not stated
T1 construct: the rat cardiac membranes (200 μg) as source of CD36; from tissue; host or cells: Sprague Dawley rat heart (cardiac membranes)
Procedure: Animal use was in accordance with the Institutional Animal Ethics Committee and the Canadian Council on Animal Care guidelines for the use of experimental animals. Sprague Dawley (275-350 g) rats were anaesthetized with sodium pentobarbital and their hearts were promptly removed in ice-cold saline and the cardiac membranes were prepared according to Harigaya and Schwartz.^lxvi
Nonspecific binding was defined as binding not displaced by 50 μM peptide. After an incubation period of 60 min at 22° C., membranes were submitted to UV irradiation at 365 nm for 15 min at 4° C. After centrifugation at 12 000 g for 15 min, the pellets were resuspended in 100 μl of sample buffer consisting of 62 mM Tris-HCl, pH 6.8, 2% SDS, 10% glycerol, 15% 2-mercapto-ethanol, and 0.05% bromophenol blue, and boiled for 5 min prior to being subjected to electrophoresis on 7.5% SDS-PAGE. The SDS/PAGE gels were fixed, colored in Coomassie Brilliant Blue R-250, dried, exposed to a storage phosphor intensifying screen (Amersham Biosciences), and analysed by using a Typhoon PhosphorImager (Amersham Biosciences) and ImageQuant 5.0 software to establish competition curves.

[2] = target: T2, GHS-R1a receptor (Homo sapiens, UniProt Q92847); assay: GHS-R1a receptor competitive binding assay with 125I-Ghrelin; settings: for IC50: competition with 125I-Ghrelin, GHS-R1a transiently transfected in LLC-PK1 cells; for loss of GHS-R1a binding affinity, factor relative to GHRP-6: factor of decrease compared to GHRP-6
T2 construct: expressed in transfected cells; host or cells: LLC-PK1 cells, transient calcium phosphate transfection, membrane preparation
Procedure: Transfection LLC-PK1 cells were seeded at 1.5×10^6 cells/10 cm Petri-dishes and grown for 24 h in DMEM high-glucose (4.5 g/L) with 10% foetal bovine serum supplemented with penicillin (10,000 Units/ml) and streptomycin (10,000 ug/ml), and cultured at 37° C., with 5% CO2. The medium was then replaced for another 4-5 hours before CaPO4 calcium phosphate transfection. The DNA solution consists of 40 μg of DNA in a volume of 500 μl in which was added 500 μl of 2 mM Tris-HCl pH 8.0, 0.2 mM EDTA pH 8.0 containing 500 mM CaCl2, to a final volume of 1 ml. Then 1 ml of 50 mM Hepes, 280 mM NaCl, 1.5 mM Na2HPO4 pH to 7.1 (HBSS) was added by alterning 1 drop/2 air bubbles. The transfection mix reaction was incubated at RT for 30 min. After the incubation period, 1 ml of the mix was added to each plate and distributed evenly for incubation. The media was replaced with standard DMEM-high glucose media for another 24 h and cells were collected for membrane preparation.
Membrane preparation The experiment was carried out 4° C. unless specified. Cells were washed 2 times with PBS and with the homogenization buffer (HB) consisting of 50 mM Tris, 5 mM MgCl2, 2.5 mM EDTA, 30 ug/ml bacitracin at pH 7.3 and were scraped in Eppendorf tubes. Cells were lysed with 2 cycles of freeze/thawing using liquid nitrogen and were then centrifuged at 4° C. for 20 min at 10,000 g to collect the membranes. The membranes were re-suspended in a small volume of HB and aliquoted for storage at −80° C.
The non-specific binding was determined by excess of competitive ligand at 10^−5M. The reaction was carried out at RT for 1 h.

[3] = tested on: TF-1 cells; assay: [3H]thymidine incorporation, IL-1 induced TF-1 cell proliferation; type: cell-based, human
Procedure: Human TF-1 cells (5×10^4 cells/well) were cultured in complete RPMI medium (GIBCO RPMI Medium 1640, Invitrogen) supplemented with GM-CSF (Granulocyte Macrophage Colony Stimulating Factor, 2 ng/ml; BD Biosource). Cells were deprived of growth factors for 18 h before preincubation with lactam peptide (1 μM) followed by treatment with IL-1β (10 or 25 ng/mL). After 24 h incubation at 37° C., [^3H]thymidine (1 μCi/mL; Amersham) was added and the cells were incubated for another 24 h. Cells were harvested, washed two times with PBS (10 mM Na2HPO4, 2 mM KH2PO4, 137 mM NaCl, 2.7 mM KCl; pH 7.4) and lysed with a 0.1 N NaOH/0.1% Triton X-100 solution. Scintillation cocktail (Fisher Scientific, 8 mL/sample) was added to the lysate, and after 3 h, radioactivity was measured (Beckman Multi-Purpose Scintillation Coulter Counter LS6500). Results were analyzed by one- or two-way ANOVA factoring for concentration or treatments. Postanova comparisons among means were performed using the Tukey-Framer method. Statistical significance was set at p<0.05. Data are presented as mean±SEM.

T2 sequence (Q92847 whole entry): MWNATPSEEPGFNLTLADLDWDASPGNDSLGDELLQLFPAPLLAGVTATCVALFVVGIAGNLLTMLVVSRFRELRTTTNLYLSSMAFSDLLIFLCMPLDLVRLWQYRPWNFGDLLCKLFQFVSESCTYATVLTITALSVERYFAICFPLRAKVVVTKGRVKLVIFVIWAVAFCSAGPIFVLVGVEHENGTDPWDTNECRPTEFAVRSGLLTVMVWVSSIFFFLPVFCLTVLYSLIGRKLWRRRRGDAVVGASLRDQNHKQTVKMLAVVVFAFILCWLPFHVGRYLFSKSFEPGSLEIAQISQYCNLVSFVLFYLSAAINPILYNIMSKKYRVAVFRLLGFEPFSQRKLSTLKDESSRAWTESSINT
T1 sequence (Q07969 whole entry): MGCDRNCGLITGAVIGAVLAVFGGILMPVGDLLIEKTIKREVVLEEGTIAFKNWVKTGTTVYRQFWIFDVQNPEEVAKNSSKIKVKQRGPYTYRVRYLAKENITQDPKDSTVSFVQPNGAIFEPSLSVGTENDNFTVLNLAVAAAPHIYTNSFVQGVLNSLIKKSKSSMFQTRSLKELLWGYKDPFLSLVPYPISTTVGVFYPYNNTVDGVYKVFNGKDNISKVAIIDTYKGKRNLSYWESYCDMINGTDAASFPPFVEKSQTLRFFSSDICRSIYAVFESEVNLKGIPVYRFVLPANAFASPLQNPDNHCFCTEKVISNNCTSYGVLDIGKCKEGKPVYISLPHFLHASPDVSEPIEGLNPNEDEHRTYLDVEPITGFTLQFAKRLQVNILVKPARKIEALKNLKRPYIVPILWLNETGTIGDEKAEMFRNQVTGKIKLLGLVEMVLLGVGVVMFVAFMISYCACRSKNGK

Row | Compound | IC50 ([1]; rat cardiac membranes) [µM] | IC50 [2] [µM] | further results
1 | C[C@@H](C(=O)N[C@@H](Cc1c[nH]c2ccccc12)C(=O)N[C@H](Cc1ccccc1)C(=O)N[C@@H](CCCCN)C(N)=O)N1CC[C@@H](NC(=O)[C@@H](N)Cc2c[nH]cn2)C1=O [Compound 61, His-(R)-Agl-Ala-Trp-D-Phe-Lys-NH2] | > 10 | > 10 | 
2 | C[C@H](NC(=O)[C@@H](Cc1c[nH]c2ccccc12)NC(=O)[C@@H](N)Cc1c[nH]cn1)C(=O)N[C@@H](Cc1c[nH]c2ccccc12)C(=O)N[C@H]1CCN([C@@H](CCCCN)C(N)=O)C1=O [Compound 48, His-D-Trp-Ala-Trp-(S)-Agl-Lys-NH2] (H-H[dW]AW-X2) | 21.4 | 3.1 | drop of CD36 affinity, factor [1]: 15
3 | C[C@H](NC(=O)[C@@H](Cc1c[nH]c2ccccc12)N1CC[C@@H](N)C1=O)C(=O)N[C@@H](Cc1c[nH]c2ccccc12)C(=O)N[C@H](Cc1ccccc1)C(=O)N[C@@H](CCCCN)C(N)=O [Compound 60, (R)-Agl-D-Trp-Ala-Trp-D-Phe-Lys-NH2] (X3-AW[dF]K-NH2) | 8.72 | 3.46 | 
4 | C[C@H](NC(=O)[C@@H](Cc1c[nH]c2ccccc12)NC(=O)[C@@H](N)Cc1c[nH]cn1)C(=O)N[C@H]1CCN([C@H](Cc2ccccc2)C(=O)N[C@@H](CCCCN)C(N)=O)C1=O [Compound 47, His-D-Trp-Ala-(S)-Agl-D-Phe-Lys-NH2] | > 10 | > 10 | 
5 | D-Arg-D-Tyr-(S)-Agl-D-Val-D-Glu-D-Leu-D-Ala-NH2 [Compound 93] |  |  | percentage of proliferation of TF-1 cells pre-treated with peptide ([3]; IL-1 induced, [3H]thymidine incorporation as in Example 59): 150%
6 | CC(C)C[C@@H](NC(=N)[C@@H](CCC(=O)O)N1C[C@H](NC(=O)[C@H](NC(=O)[C@@H](Cc2ccc(O)cc2)NC(=O)[C@H](N)CCCNC(=N)N)[C@@H](C)O)CC1=O)C(=O)N[C@H](C)C(N)=O [Compound 78, D-Arg-D-Tyr-D-Thr-(R)-Bgl-D-Glu-D-Leu-D-Ala-NH2] (H-[dR][dY][d(aThr)][X12][dA]-NH2) |  |  | increase in efficacy compared to 101.10, inhibition of IL-1 induced TF-1 proliferation ([3]; lactam peptide 1 μM, IL-1β 10 or 25 ng/mL): 2.4 fold
7 | NCCCC[C@H](NC(=O)[C@H](Cc1ccccc1)NC(=O)[C@H](Cc1c[nH]c2ccccc12)N1CC[C@@H](NC(=O)[C@@H](Cc2c[nH]c3ccccc23)NC(=O)[C@@H](N)Cc2c[nH]cn2)C1=O)C(N)=O [Compound 62, His-D-Trp-(R)-Agl-Trp-D-Phe-Lys-NH2] | 17.3 | 2.82 | 
8 | C[C@H](NC(=O)[C@@H](Cc1c[nH]c2ccccc12)NC(=O)[C@@H](N)Cc1c[nH]cn1)C(=O)N[C@@H](Cc1c[nH]c2ccccc12)C(=O)N[C@H]1CC(=O)N([C@@H](CCCCN)C(N)=O)C1 [Compound 53, His-D-Trp-Ala-Trp-(S)-Bgl-Lys-NH2] (H-H[dW]AW-X1) | 26.5 | 24.5 | drop of CD36 affinity, factor [1]: 15
9 | NCCCC[C@H](NC(=O)[C@@H](Cc1ccccc1)NC(=O)[C@H](Cc1c[nH]c2ccccc12)N1C[C@@H](NC(=O)[C@@H](Cc2c[nH]c3ccccc23)NC(=O)[C@@H](N)Cc2cnc[nH]2)CC1=O)C(N)=O [Compound 51, His-D-Trp-(S)-Bgl-Trp-D-Phe-Lys-NH2] (H-H[dW][X9][dF]K-NH2) | > 10 | 0.654 | 
10 | C[C@H](NC(=O)[C@@H](Cc1c[nH]c2ccccc12)N1C[C@@H](N)CC1=O)C(=O)N[C@@H](Cc1c[nH]c2ccccc12)C(=O)N[C@H](Cc1ccccc1)C(=O)N[C@@H](CCCCN)C(N)=O [Compound 49, (S)-Bgl-D-Trp-Ala-Trp-D-Phe-Lys-NH2] (X7-AW[dF]K-NH2) | > 10 | 0.371 | 
11 | C[C@@H](C(=O)N[C@@H](Cc1c[nH]c2ccccc12)C(=O)N[C@H](Cc1ccccc1)C(=O)N[C@@H](CCCCN)C(N)=O)N1CC[C@H](NC(=O)[C@@H](N)Cc2c[nH]cn2)C1=O [Compound 45, His-(S)-Agl-Ala-Trp-D-Phe-Lys-NH2] | 13.4 | 28.6 | drop of CD36 affinity, factor [1]: 15
12 | C[C@H](NC(=O)[C@@H](Cc1c[nH]c2ccccc12)NC(=O)[C@@H](N)Cc1c[nH]cn1)C(=O)N[C@@H]1CCN([C@H](Cc2ccccc2)C(=O)N[C@@H](CCCCN)C(N)=O)C1=O [Compound 63, His-D-Trp-Ala-(R)-Agl-D-Phe-Lys-NH2] | > 10 | > 10 | 
13 | C[C@H](NC(=O)[C@@H](Cc1c[nH]c2ccccc12)N1CC[C@H](N)C1=O)C(=O)N[C@@H](Cc1c[nH]c2ccccc12)C(=O)N[C@H](Cc1ccccc1)C(=O)N[C@@H](CCCCN)C(N)=O [Compound 44, (S)-Agl-D-Trp-Ala-Trp-D-Phe-Lys-NH2] (X4-AW[dF]K-NH2) | 14.5 | 0.0409 | loss of GHS-R1a binding affinity, factor relative to GHRP-6 [2]: 10
14 | C[C@H](NC(=O)[C@@H](Cc1c[nH]c2ccccc12)NC(=O)[C@@H](N)Cc1c[nH]cn1)C(=O)N[C@@H](Cc1c[nH]c2ccccc12)C(=O)N[C@@H]1CCN([C@@H](CCCCN)C(N)=O)C1=O [Compound 64, His-D-Trp-Ala-Trp-(R)-Agl-Lys-NH2] (H-H[dW]AW-X6) | 38.2 | > 10 | reduction of CD36 binding affinity, factor compared with hexarelin [1]: 10
15 | NCCCC[C@H](NC(=O)[C@H](Cc1ccccc1)NC(=O)[C@H](Cc1c[nH]c2ccccc12)N1CC[C@H](NC(=O)[C@@H](Cc2c[nH]c3ccccc23)NC(=O)[C@@H](N)Cc2c[nH]cn2)C1=O)C(N)=O [Compound 46, His-D-Trp-(S)-Agl-Trp-D-Phe-Lys-NH2] | 7.45 | 2.39 | affinity for the CD36 receptor (in words) ([1]; rat cardiac membranes): retained similar affinity; loss of GHS-R1a binding affinity, factor relative to GHRP-6 [2]: 10^3
16 | C[C@@H](C(=O)NCN[C@@H](Cc1c[nH]c2ccccc12)C(=O)N[C@H](Cc1ccccc1)C(=O)N[C@@H](CCCCN)C(N)=O)N1C[C@@H](NC(=O)[C@@H](N)Cc2c[nH]cn2)CC1=O [Compound 50, His-(S)-Bgl-Ala-Trp-D-Phe-Lys-NH2] | > 10 | > 10 | 
17 | C[C@H](NC(=O)[C@@H](Cc1c[nH]c2ccccc12)NC(=O)[C@@H](N)Cc1c[nH]cn1)C(=O)N[C@@H]1CC(=O)N([C@H](Cc2ccccc2)C(=O)N[C@@H](CCCCN)C(N)=O)C1 [Compound 69, His-D-Trp-Ala-(R)-Bgl-D-Phe-Lys-NH2] (H-H[dW]A[X5]K-NH2) | 53.5 | > 10 | reduction of CD36 binding affinity, factor compared with hexarelin [1]: 10
18 | C[C@H](NC(=O)[C@@H](Cc1c[nH]c2ccccc12)NC(=O)[C@@H](N)Cc1c[nH]cn1)C(=O)N[C@@H](Cc1c[nH]c2ccccc12)C(=O)N[C@@H]1CC(=O)N([C@@H](CCCCN)C(N)=O)C1 [Compound 70, His-D-Trp-Ala-Trp-(R)-Bgl-Lys-NH2] (H-H[dW]AW-X8) | > 10 | > 10 | 
19 | C[C@H](NC(=O)[C@@H](Cc1c[nH]c2ccccc12)NC(=O)[C@@H](N)Cc1c[nH]cn1)C(=O)N[C@H]1CC(=O)N([C@H](Cc2ccccc2)C(=O)N[C@@H](CCCCN)C(N)=O)C1 [Compound 52, His-D-Trp-Ala-(S)-Bgl-D-Phe-Lys-NH2] (H-H[dW]A[X10]K-NH2) | > 10 | > 10 | 
